Paper PMC12735921, “Evaluation of Antiproliferative Activity and Molecular Modeling Studies of Some Novel Benzimidazolone-Bridged Hybrid Compounds” (Pharmaceuticals, 2025)
Where “and” joins values, the source holds several entries; their conditions need not be identical. Equal entries are not always repeated. Marks after values point to notes of the source that are not given here.

What was measured:
HeLa cells [1] = experiment: Total oxidative status (TOS), HeLa; type: cell-based, human; conditions: IC50 concentration of compound, 48 h, H2O2 250 µM positive control, mean ± SD, n = 3
Method: (§1) TOS were evaluated using a commercially available kit (Rel Assay Diagnostics®, Gaziantep, Turkey) according to the manufacturer’s instructions. […] The TOS assay quantifies oxidizing agents based on their ability to convert an iron (II) ion chelator complex to iron (III) ions. The results were calibrated against hydrogen peroxide (H2O2, 250 µM) as a positive control for 48 h and expressed as µmol H2O2 equivalents per liter. The analysis was performed in three independent biological replicates (n = 3).

A549 cells [2] = experiment: MTT cell viability assay, A549; type: cell-based, human
Method in brief: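 Cells exposed to compounds at 0.5–200 µM for 48 h in DMEM with 10% FBS at 37 °C, 5% CO2; formazan dissolved in DMSO and read at 570 nm. Cytotoxicity relative to untreated control; IC50 from four-parameter logistic fit, mean of three independent measurements, triplicate samples.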

MCF-7 cells [3] = experiment: LDH leakage assay, MCF-7; type: cell-based, human; conditions: MCF-7, IC50 concentration of compound, 48 h; H2O2 positive control; mean ± SD, n = 3
Method: One hundred microliters of culture medium was transferred to a new 96-well plate. One hundred microliters of LDH reaction solution was added to each well, and absorbance was measured at 490 nm using an ELISA plate reader (BMG Labtech, Ortenberg, Germany) after 30 min.

MCF-7 cells [4] = experiment: Intracellular GSH/GSSG ratio, MCF-7; type: cell-based, human; conditions: MCF-7, IC50 concentration of compound, 48 h; H2O2 positive control; mean ± SD, n = 3
Method: Intracellular reduced (GSH) and oxidized (GSSG) glutathione levels were measured using the GSH/GSSG Ratio Detection Assay Kit (Cayman Chemical, Ann Arbor, MI, USA, Cat. No: 703002) according to the manufacturer’s protocol. […] After treatment, cells were washed with cold PBS and lysed with MES buffer provided in the kit.
To prevent oxidation of GSH to GSSG during processing, samples were deproteinized using the supplied metaphosphoric acid solution and neutralized accordingly. Total glutathione and GSSG levels were measured separately by adding the appropriate buffers and reagents to the wells of a 96-well plate, followed by the addition of DTNB recycling reagent and glutathione reductase. Absorbance was read at 405 nm using a microplate reader (BMG Labtech, Germany). The amount of GSH was calculated by subtracting 2 × GSSG from the total glutathione, and the GSH/GSSG ratio was used to assess intracellular redox status.

HeLa cells [5] = experiment: Cell cycle analysis (PI staining, flow cytometry), HeLa; type: cell-based, human; conditions: IC50 concentration, 48 h, mean ± SEM, n = 3
Method: Cell cycle distribution was assessed by propidium iodide (PI) staining and flow cytometry. HeLa, MCF-7, and A549 cells were seeded in 6-well plates at a density of 1 × 10^5 cells per well and allowed to attach overnight. […] Following exposure, both adherent and floating cells were collected, washed twice with cold phosphate-buffered saline (PBS, pH 7.4), and fixed overnight in 70% cold ethanol at 4 °C. After fixation, the cells were centrifuged and resuspended in 500 µL of PI/RNase staining solution containing 50 µg/mL PI and 100 µg/mL RNase A (Sigma-Aldrich®, St. Louis, MO, USA), followed by incubation in the dark for 30 min at 37 °C. The stained samples were analyzed using a Muse™ Cell Analyzer (Merck, Millipore, Germany) equipped with a 488 nm excitation laser and a 617 nm emission filter. A minimum of 10,000 events per sample were acquired after exclusion of debris and doublets via FSC-A vs. FSC-H gating. The DNA content histograms were generated automatically, and cell populations were expressed as percentages of G0/G1, S, and G2/M phases using the Muse™ Cell Cycle Analysis Software 1.5.0.0. All assays were conducted in triplicate biological repeats (n = 3), and results were reported as mean ± SEM.

[6] = test system: A549, MCF-7, and HeLa cells; experiment: MTT cell viability assay, ranges stated across the cancer cell lines; type: cell-based; conditions: Homo sapiens, range over the three cancer cell lines, 48 h
Method: Cell viability assay was performed on the human lung cancer (A549) (ATCC CCL-185), human breast cancer (MCF-7) (ATCC-HTB-22), cervical cancer (HeLa) (ATCC-CCL-2), and human embryonic kidney 293 (HEK293) (ATCC-CRL-1573) cell lines, which were purchased from Deutsche Sammlung von Mikroorganismen und Zellkulturen (DSMZ, Braunschweig, Germany). The cells were maintained in Dulbecco’s modified Eagle’s medium (DMEM), supplemented with 10% fetal bovine serum (FBS), 2 mM L-glutamine, 100 U/mL penicillin, and 100 mg/L streptomycin (Biochrom AG, Berlin, Germany) at 37 °C in a humidified atmosphere of 5% CO2.
The cytotoxic effect was determined by the MTT (3-(4,5-dimethyl-2-thiazolyl)-2,5-diphenyl-2H-tetrazolium bromide) cell viability assay. Cells were seeded at an initial concentration of 1 × 10^5 cells/mL in 96-well microplates. […] After the incubation period, the formed formazan crystals were dissolved in dimethyl sulfoxide (DMSO), and the optical density (OD) of the compounds was measured at 570 nm using a spectrophotometer (BMG Labtech, Ortenberg, Germany). Cytotoxicity was expressed as an increase in the mean percentage of cytotoxicity relative to the unexposed control ± standard deviation (SD). […] IC50 was calculated by fitting the data to a sigmoidal curve using a four-parameter logistic model and was presented as an average of three independent measurements. […]

HEK 293 cells = experiment: MTT cell viability assay, non-cancerous HEK 293; type: cell-based, human; conditions: Homo sapiens, HEK293, 48 h, mean ± SD, n = 3
Method in brief: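 Cells grown in DMEM/10% FBS were seeded at 1 × 10^5 cells/mL and exposed to compounds at 0.5–200 µM for 48 h. Formazan was dissolved in DMSO and read at 570 nm, with cytotoxicity expressed relative to untreated control (0%). IC50 came from a four-parameter logistic fit, averaged over three independent runs.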

A549 cells [7] = experiment: Total oxidative status (TOS), A549; type: cell-based, human; conditions: A549, IC50 concentration of compound, 48 h; H2O2 250 µM positive control; mean ± SD, n = 3
Method: as §1

## O=C(O)Cn1c(=O)n(CC(=O)O)c2cc(Cl)c(Cl)cc21 [Compound 6, 2,2′-(5,6-Dichloro-2-oxo-1H-benzo[d]imidazole-1,3(2H)-diyl)diacetic Acid]
HeLa cells [1]
  TOS: 7.8 ± 0.6 µmol H2O2 eq/L and 7.8 ± 0.6 ^a,b µmol H2O2 eq/L
A549 cells [2]; Homo sapiens, A549, MTT, 48 h, mean ± SD, n = 3
  IC50: 30.6 ± 1.76 µM
A549 cells [2]; SI = IC50 (HEK 293)/IC50 (A549)
  A549 Selectivity Index (SI): 2.04
MCF-7 cells [3]
  LDH: 22.7 ± 1.8 µU/mL and 22.7 ± 1.8 ^a,b µU/mL
MCF-7 cells [4]
  GSH/GSSG: 12.1 ± 1.2 nmol/mg Protein and 12.1 ± 1.2 ^a,b nmol/mg Protein
HeLa cells [5]
  cells in G0/G1 phase: 42.3 ± 2.3%
  cells in G2/M phase: 32.9 ± 1.6%
  cells in S phase: 24.8 ± 1.5%
[6]
  IC50: 28.3 to 31.2 µM
HEK 293 cells
  IC50: 62.7 ± 3.62 µM
A549 cells [7]
  TOS: 7.3 ± 0.5 ^a,b µmol H2O2 eq/L
